In PMC11277489, “Novel Piperazine Derivatives of Vindoline as Anticancer Agents” (International Journal of Molecular Sciences, 2024):

Legend:
[1] = system: SK-MEL-28; assay: NCI60 one-dose screen (10 μM), Melanoma; format: cell-based; conditions: Homo sapiens; 10 μM; SK-MEL-28, Melanoma; read-out: Growth percent rate
[2] = system: A549/ATCC; assay: NCI60 one-dose screen (10 μM), Non-small Cell Lung Cancer; format: cell-based; conditions: Homo sapiens; 10 μM; A549/ATCC, Non-small Cell Lung Cancer; read-out: Growth percent rate
[3] = system: SF-295; assay: NCI60 one-dose screen (10 μM), CNS Cancer; format: cell-based; conditions: Homo sapiens; 10 μM; SF-295, CNS Cancer; read-out: Growth percent rate
[4] = system: UACC-257; assay: NCI60 one-dose screen (10 μM), Melanoma; format: cell-based; conditions: Homo sapiens; 10 μM; UACC-257, Melanoma; read-out: Growth percent rate
[5] = system: NCI-H460; assay: NCI60 one-dose screen (10 μM), Non-small Cell Lung Cancer; format: cell-based; conditions: Homo sapiens; 10 μM; NCI-H460, Non-small Cell Lung Cancer; read-out: Growth percent rate
[6] = system: MALME-3M; assay: NCI60 one-dose screen (10 μM), Melanoma; format: cell-based; conditions: Homo sapiens; 10 μM; MALME-3M, Melanoma; read-out: Growth percent rate
[7] = system: A498; assay: NCI60 one-dose screen (10 μM), Renal Cancer; format: cell-based; conditions: Homo sapiens; 10 μM; A498, Renal Cancer; read-out: Growth percent rate
[8] = system: HL-60(TB); assay: NCI60 one-dose screen (10 μM), Leukemia; format: cell-based; conditions: Homo sapiens; 10 μM; HL-60(TB), Leukemia; read-out: Growth percent rate
[9] = system: HT29; assay: NCI60 one-dose screen (10 μM), Colon Cancer; format: cell-based; conditions: Homo sapiens, HT-29; 10 μM; HT29, Colon Cancer; read-out: Growth percent rate
[10] = system: IGROV1; assay: NCI60 one-dose screen (10 μM), Ovarian Cancer; format: cell-based; conditions: Homo sapiens, IGROV-1; 10 μM; IGROV1, Ovarian Cancer; read-out: Growth percent rate
[11] = system: 786–0; assay: NCI60 one-dose screen (10 μM), Renal Cancer; format: cell-based; conditions: Homo sapiens; 10 μM; 786-0, Renal Cancer; read-out: Growth percent rate
[12] = system: RPMI-8226; assay: NCI60 one-dose screen (10 μM), Leukemia; format: cell-based; conditions: Homo sapiens; 10 μM; RPMI-8226, Leukemia; read-out: Growth percent rate
[13] = system: KM12; assay: NCI60 one-dose screen (10 μM), Colon Cancer; format: cell-based, human; conditions: Homo sapiens; 10 μM; KM12, Colon Cancer; read-out: Growth percent rate
[14] = system: U251; assay: NCI60 one-dose screen (10 μM), CNS Cancer; format: cell-based; conditions: Homo sapiens, U-251; 10 μM; U251, CNS Cancer; read-out: Growth percent rate
[15] = system: HCT-116; assay: NCI60 one-dose screen (10 μM), Colon Cancer; format: cell-based; conditions: Homo sapiens; 10 μM; HCT-116, Colon Cancer; read-out: Growth percent rate
[16] = system: SF-539; assay: NCI60 one-dose screen (10 μM), CNS Cancer; format: cell-based, human; conditions: Homo sapiens; 10 μM; SF-539, CNS Cancer; read-out: Growth percent rate
[17] = system: NCI-H522; assay: NCI60 one-dose screen (10 μM), Non-small Cell Lung Cancer; format: cell-based; conditions: Homo sapiens; 10 μM; NCI-H522, Non-small Cell Lung Cancer; read-out: Growth percent rate
[18] = system: LOX IMVI; assay: NCI60 one-dose screen (10 μM), Melanoma; format: cell-based, human; conditions: Homo sapiens; 10 μM; LOX IMVI, Melanoma; read-out: Growth percent rate
[19] = system: HCT-15; assay: NCI60 one-dose screen (10 μM), Colon Cancer; format: cell-based; conditions: Homo sapiens; 10 μM; HCT-15, Colon Cancer; read-out: Growth percent rate
[20] = system: RXF 393; assay: NCI60 one-dose screen (10 μM), Renal Cancer; format: cell-based, human; conditions: Homo sapiens; 10 μM; RXF 393, Renal Cancer; read-out: Growth percent rate
[21] = system: SW-620; assay: NCI60 one-dose screen (10 μM), Colon Cancer; format: cell-based; conditions: Homo sapiens; 10 μM; SW-620, Colon Cancer; read-out: Growth percent rate
[22] = system: SNB-75; assay: NCI60 one-dose screen (10 μM), CNS Cancer; format: cell-based, human; conditions: Homo sapiens; 10 μM; SNB-75, CNS Cancer; read-out: Growth percent rate
[23] = system: TK-10; assay: NCI60 one-dose screen (10 μM), Renal Cancer; format: cell-based; conditions: Homo sapiens; 10 μM; TK-10, Renal Cancer; read-out: Growth percent rate
[24] = system: MCF7; assay: NCI60 one-dose screen (10 μM), Breast Cancer; format: cell-based; conditions: Homo sapiens; 10 μM; MCF7, Breast Cancer; read-out: Growth percent rate
[25] = system: 60 human tumor cell lines (NCI60); assay: NCI60 one-dose screen (10 μM), whole panel; format: cell-based; conditions: 10 μM; mean over 60 human cancer cell lines; read-out: Growth percent rate, Mean
[26] = system: MOLT-4; assay: NCI60 one-dose screen (10 μM), Leukemia; format: cell-based, human; conditions: Homo sapiens; 10 μM; MOLT-4, Leukemia; read-out: Growth percent rate
[27] = system: NCI-H322M; assay: NCI60 one-dose screen (10 μM), Non-small Cell Lung Cancer; format: cell-based; conditions: Homo sapiens, 10 μM, Non-small Cell Lung Cancer, read-out: Growth percent rate
[28] = system: HOP-62; assay: as above; format: cell-based; conditions: Homo sapiens; 10 μM; HOP-62, Non-small Cell Lung Cancer; read-out: Growth percent rate
[29] = system: SF-268; assay: NCI60 one-dose screen (10 μM), CNS Cancer; format: cell-based; conditions: Homo sapiens; 10 μM; SF-268, CNS Cancer; read-out: Growth percent rate
[30] = system: CCRF-CEM; assay: NCI60 one-dose screen (10 μM), Leukemia; format: cell-based; conditions: Homo sapiens, 10 μM, Leukemia, read-out: Growth percent rate
[31] = system: HS 578T; assay: NCI60 one-dose screen (10 μM), Breast Cancer; format: cell-based; conditions: Homo sapiens; 10 μM; HS 578T, Breast Cancer; read-out: Growth percent rate
[32] = system: SK-MEL-5; assay: NCI60 one-dose screen (10 μM), Melanoma; format: cell-based, human; conditions: Homo sapiens; 10 μM; SK-MEL-5, Melanoma; read-out: Growth percent rate
[33] = system: DU-145; assay: NCI60 one-dose screen (10 μM), Prostate Cancer; format: cell-based; conditions: Homo sapiens; 10 μM; DU-145, Prostate Cancer; read-out: Growth percent rate
[34] = system: K-562; assay: NCI60 one-dose screen (10 μM), Leukemia; format: cell-based; conditions: Homo sapiens, K562; 10 μM; K-562, Leukemia; read-out: Growth percent rate
[35] = system: SN12C; assay: NCI60 one-dose screen (10 μM), Renal Cancer; format: cell-based; conditions: Homo sapiens, 10 μM, Renal Cancer, read-out: Growth percent rate
[36] = system: ACHN; assay: NCI60 one-dose screen (10 μM), Renal Cancer; format: cell-based; conditions: Homo sapiens, 10 μM, Renal Cancer, read-out: Growth percent rate
[37] = system: OVCAR-8; assay: NCI60 one-dose screen (10 μM), Ovarian Cancer; format: cell-based; conditions: Homo sapiens; 10 μM; OVCAR-8, Ovarian Cancer; read-out: Growth percent rate
[38] = system: SK-MEL-2; assay: NCI60 one-dose screen (10 μM), Melanoma; format: cell-based; conditions: Homo sapiens; 10 μM; SK-MEL-2, Melanoma; read-out: Growth percent rate
[39] = system: M14; assay: NCI60 one-dose screen (10 μM), Melanoma; format: cell-based; conditions: Homo sapiens; 10 μM; M14, Melanoma; read-out: Growth percent rate
[40] = system: COLO 205; assay: NCI60 one-dose screen (10 μM), Colon Cancer; format: cell-based, human; conditions: Homo sapiens; 10 μM; COLO 205, Colon Cancer; read-out: Growth percent rate
[41] = system: SNB-19; assay: NCI60 one-dose screen (10 μM), CNS Cancer; format: cell-based; conditions: Homo sapiens; 10 μM; SNB-19, CNS Cancer; read-out: Growth percent rate
[42] = system: OVCAR-3; assay: NCI60 one-dose screen (10 μM), Ovarian Cancer; format: cell-based; conditions: Homo sapiens; 10 μM; OVCAR-3, Ovarian Cancer; read-out: Growth percent rate

Q: CC[C@]12C=CCN3CC[C@@]4(c5ccc(OC)cc5N(C)[C@H]4[C@@](O)(C(=O)OC)[C@@H]1OC(=O)CCC(=O)N1CCN(Cc4ccc(C(F)(F)F)cc4)CC1)[C@@H]32 [Compound 29] was tested. Which activity at 10 µM [1] did it give?
A: Its activity at 10 µM is 7.72%.

Q: What about the activity at 10 µM [2] of the same compound?
A: Its activity at 10 µM is 25.3%.

Q: What about the activity at 10 µM [3] of the same compound?
A: Its activity at 10 µM is 7.76%.

Q: And the activity at 10 µM [4]?
A: The activity at 10 µM was 22.6%.

Q: And the activity at 10 µM [5]?
A: Its activity at 10 µM is -11.4%.

Q: What about the activity at 10 µM [6] of the same compound?
A: The activity at 10 µM was -26.5%.

Q: And the activity at 10 µM [7]?
A: Its activity at 10 µM is 20.1%.

Q: And the activity at 10 µM [8]?
A: The activity at 10 µM was -58.2%.

Q: And the activity at 10 µM [9]?
A: Its activity at 10 µM is -10%.

Q: And the activity at 10 µM [10]?
A: The activity at 10 µM was -31.2%.

Q: And the activity at 10 µM [11]?
A: The activity at 10 µM was 11.9%.

Q: What about the activity at 10 µM [12] of the same compound?
A: The activity at 10 µM was -14.2%.

Q: What about the activity at 10 µM [13] of the same compound?
A: The activity at 10 µM was 3.78%.

Q: What about the activity at 10 µM [14] of the same compound?
A: Its activity at 10 µM is 19.1%.

Q: What about the activity at 10 µM [15] of the same compound?
A: The activity at 10 µM was 7.59%.

Q: What about the activity at 10 µM [16] of the same compound?
A: Its activity at 10 µM is 11.7%.

Q: What about the activity at 10 µM [17] of the same compound?
A: The activity at 10 µM was 28.2%.

Q: What about the activity at 10 µM [18] of the same compound?
A: Its activity at 10 µM is -7.07%.

Q: What about the activity at 10 µM [19] of the same compound?
A: The activity at 10 µM was 15%.

Q: And the activity at 10 µM [20]?
A: The activity at 10 µM was 10.2%.

Q: And the activity at 10 µM [21]?
A: The activity at 10 µM was 9.15%.

Q: What about the activity at 10 µM [22] of the same compound?
A: The activity at 10 µM was 7.51%.

Q: And the activity at 10 µM [23]?
A: Its activity at 10 µM is 45.7%.

Q: What about the activity at 10 µM [24] of the same compound?
A: Its activity at 10 µM is 10.9%.

Q: What about the activity at 10 µM [25] of the same compound?
A: The activity at 10 µM was -1.41%.

Q: And the activity at 10 µM [26]?
A: Its activity at 10 µM is -4.63%.

Q: And the activity at 10 µM [27]?
A: Its activity at 10 µM is 35.4%.

Q: What about the activity at 10 µM [28] of the same compound?
A: The activity at 10 µM was 22%.

Q: What about the activity at 10 µM [29] of the same compound?
A: Its activity at 10 µM is 14.6%.

Q: What about the activity at 10 µM [30] of the same compound?
A: The activity at 10 µM was 3.8%.

Q: And the activity at 10 µM [31]?
A: Its activity at 10 µM is 0.42%.

Q: And the activity at 10 µM [32]?
A: Its activity at 10 µM is -90.9%.

Q: What about the activity at 10 µM [33] of the same compound?
A: The activity at 10 µM was 20.3%.

Q: What about the activity at 10 µM [34] of the same compound?
A: Its activity at 10 µM is -12.5%.

Q: And the activity at 10 µM [35]?
A: The activity at 10 µM was 14.8%.

Q: What about the activity at 10 µM [36] of the same compound?
A: Its activity at 10 µM is 3.7%.

Q: What about the activity at 10 µM [37] of the same compound?
A: The activity at 10 µM was 23.4%.

Q: What about the activity at 10 µM [38] of the same compound?
A: Its activity at 10 µM is -63.4%.

Q: What about the activity at 10 µM [39] of the same compound?
A: The activity at 10 µM was -20.3%.

Q: And the activity at 10 µM [40]?
A: The activity at 10 µM was -91%.

Q: What about the activity at 10 µM [41] of the same compound?
A: Its activity at 10 µM is 20.1%.

Q: What about the activity at 10 µM [42] of the same compound?
A: The activity at 10 µM was 0.33%.
